# In ChEMBL document CHEMBL4483862, “Open-source discovery of chemical leads for next-generation chemoprotective antimalarials” (2018):
# System: Plasmodium berghei
# Test: Luciferase/luciferin-expressing antifolate-resistant parasites were used to infect a culture of HepG2 cells that were pre-incubated with compounds. Infected hepatocytes emit light due to the luciferase reaction. Assay results are presented as the percent inhibition of light emission compared to control. […]
# Assay type: functional
# Settings: sporozoite; for IC90: read-out: LUCIFERASE INFECTION ASSAY - IC90
# [1] = read-out: LUCIFERASE INFECTION ASSAY - IC50
SMILES,IC90,IC50 [1],other results
COc1cc(CNCc2ccc3c(c2)OCO3)ccc1OCc1ccc(F)cc1,> 8.35 µM,,"IC50 (PBLUC_HILL_SLOPE 2.11, PBLUC_R_SQUARED 0.727, read-out: LUCIFERASE INFECTION ASSAY - IC50): 5.34 µM"
CNc1ccccc1C(=O)N/N=C/c1cc(Cl)cc(Cl)c1O,> 9.76 µM,,"IC50 (HEPG2TOX_HILL_SLOPE 2.97, HEPG2TOX_R_SQUARED 0.147, PBLUC_HILL_SLOPE 9.98, PBLUC_R_SQUARED 0.459, read-out: LUCIFERASE INFECTION ASSAY - IC50): > 9.76 µM"
NC(=O)c1ccc(-c2cc(-c3cccc(C(F)(F)F)c3)cnc2N)cc1,5.02 µM,,"IC50 (PBLUC_HILL_SLOPE 80.6, PBLUC_R_SQUARED 0.104, read-out: LUCIFERASE INFECTION ASSAY - IC50): 4.88 µM"
CN(C(=O)CSc1nnc(COc2ccccc2F)n1N)C1CCCCC1,6.57 µM,,"IC50 (HEPG2TOX_HILL_SLOPE 2.33, HEPG2TOX_R_SQUARED 0.96, PBLUC_HILL_SLOPE 2.14, PBLUC_R_SQUARED 0.67, read-out: LUCIFERASE INFECTION ASSAY - IC50): 2.35 µM"
CC(C)c1ccc(NC(=O)c2csc(C(O)c3ccccc3)n2)cc1 (stereo not drawn),> 10 µM,,"IC50 (HEPG2TOX_HILL_SLOPE 0.582, HEPG2TOX_R_SQUARED 0.837, PBLUC_HILL_SLOPE 1.67, PBLUC_R_SQUARED 0.415, read-out: LUCIFERASE INFECTION ASSAY - IC50): 7.47 µM"
Cc1cc(C)c(O)c(/C=N/NC(=S)NC(C)(C)C)c1,> 11.8 µM,> 11.8 µM,
O=C1NCC(COC(=O)c2ccc3c4c(cccc24)CC3)O1 (stereo not drawn),3.64 µM,,"IC50 (HEPG2TOX_HILL_SLOPE 2.53, HEPG2TOX_R_SQUARED 0.949, PBLUC_HILL_SLOPE 23.6, PBLUC_R_SQUARED 0.351, read-out: LUCIFERASE INFECTION ASSAY - IC50): 3.32 µM"
COc1cc(NC(=O)c2csc(C(O)c3cccc(C(F)(F)F)c3)n2)cc(OC)c1OC (stereo not drawn),> 10 µM,> 10 µM,
COC(=O)c1cccc(C(=O)Nc2nccn2Cc2ccccc2)c1,9.3 µM,,"IC50 (PBLUC_HILL_SLOPE 5.71, PBLUC_R_SQUARED 0.673, read-out: LUCIFERASE INFECTION ASSAY - IC50): 6.33 µM"
O=C1COc2ccc(-c3cs/c(=N\c4cc(S(=O)(=O)N5CCOCC5)ccc4Cl)n3C3CC3)cc2N1,> 10 µM,,"IC50 (FFLUC_HILL_SLOPE 592, FFLUC_R_SQUARED 0.24, HEPG2TOX_HILL_SLOPE 8.86, HEPG2TOX_R_SQUARED 0.733, PBLUC_HILL_SLOPE 5.17, PBLUC_R_SQUARED 0.255, read-out: LUCIFERASE INFECTION ASSAY - IC50): 8.04 µM"
O=C(CN(Cc1ccccc1)S(=O)(=O)c1ccc(Cl)cc1)Nc1nnc(C(F)(F)F)s1,3.96 µM,,"IC50 (HEPG2TOX_HILL_SLOPE 2.23, HEPG2TOX_R_SQUARED 0.869, PBLUC_HILL_SLOPE 13.4, PBLUC_R_SQUARED 0.351, read-out: LUCIFERASE INFECTION ASSAY - IC50): 3.37 µM"
CCCn1c(-c2ccc(OC)cc2)nc2c(c(=O)c3ccccc3n2C)c1=O,7.12 µM,,"IC50 (PBLUC_HILL_SLOPE 3.15, PBLUC_R_SQUARED 0.522, read-out: LUCIFERASE INFECTION ASSAY - IC50): 3.55 µM"
COc1ccc2nc3cc(Cl)ccc3c(N(C)CCc3ccc(OC)c(OC)c3)c2c1,0.33 µM,,"IC50 (PBLUC_HILL_SLOPE 4.42, PBLUC_R_SQUARED 0.447, read-out: LUCIFERASE INFECTION ASSAY - IC50): 0.201 µM"
Cc1cc(C(C)(C)C)cc(C)c1CCNC(=O)C1CCN(c2cnccn2)CC1,> 10 µM,,"IC50 (HEPG2TOX_HILL_SLOPE 9.49, HEPG2TOX_R_SQUARED 0.929, PBLUC_HILL_SLOPE 9.04, PBLUC_R_SQUARED 0.464, read-out: LUCIFERASE INFECTION ASSAY - IC50): 8.99 µM"
CNC(=O)c1cccc(-c2ccc3ncc(-c4cccc(OC(F)(F)F)c4)n3n2)c1,4.88 µM,,"IC50 (PBLUC_HILL_SLOPE 8.51, PBLUC_R_SQUARED 0.256, read-out: LUCIFERASE INFECTION ASSAY - IC50): 3.77 µM"
CN(C)c1cc[n+](CC(=O)Nc2ccc(OC(F)F)cc2)cc1,> 10 µM,,"IC50 (HEPG2TOX_HILL_SLOPE 2.17, HEPG2TOX_R_SQUARED 0.89, read-out: LUCIFERASE INFECTION ASSAY - IC50): > 10 µM"
COc1cc(OC)c(NC(=O)c2cc3ccccc3cc2OCC(=O)NCc2ccco2)cc1Cl,> 10 µM,,"IC50 (PBLUC_HILL_SLOPE 22.1, PBLUC_R_SQUARED 0.617, read-out: LUCIFERASE INFECTION ASSAY - IC50): 9.17 µM"
Cc1cc2nc(Oc3ccc4c(c3)CCC4)c3ccccc3n2n1,> 10 µM,> 10 µM,
O=C(CN1CCN(Cc2ccc(-n3cccn3)cc2)CC1)Nc1ccc(OC(F)(F)F)cc1,> 10 µM,> 10 µM,
CNC(=S)N/N=C1\C(=O)Nc2ccc(C(C)C)cc21,> 10 µM,,"IC50 (FFLUC_HILL_SLOPE 0.391, FFLUC_R_SQUARED 0.18, PBLUC_HILL_SLOPE 8.53, PBLUC_R_SQUARED 0.15, read-out: LUCIFERASE INFECTION ASSAY - IC50): 8.69 µM"
O=C(NNC(=O)c1cc(F)c(F)c(F)c1F)c1ccc(COc2cccc3cccnc23)cc1,> 10 µM,> 10 µM,
COc1ccc(C)cc1-n1c(=O)c2ccccc2n2c(SC)nnc12,> 10 µM,> 10 µM,

SMILES,IC90,IC50 [1],other results
O=C(CN1CCN(c2cccc(Cl)c2)CC1)Nc1cc(C2CC2)nn1-c1ccccc1,> 10 µM,,"IC50 (PBLUC_HILL_SLOPE 3.16, PBLUC_R_SQUARED 0.0582, read-out: LUCIFERASE INFECTION ASSAY - IC50): 6.87 µM"
Cc1cc(C(=O)N/N=C/C(C)(C)C)nn1-c1ccc(C(C)C)cc1,> 10.1 µM,> 10.1 µM,
CCOc1cc(N2CCOCC2)c(OCC)cc1NC(=O)c1cc(Cl)c(OC)c(OC)c1,> 10 µM,> 10 µM,
CC(C)(CNC(=O)Nc1ccccc1)SCc1ccc(Cl)cc1,> 9.46 µM,,"IC50 (PBLUC_HILL_SLOPE 4.79, PBLUC_R_SQUARED 0.408, read-out: LUCIFERASE INFECTION ASSAY - IC50): 6.73 µM"
Cc1c(C(=O)O)sc(S(=O)(=O)N2CCN(C(=O)C(C)(C)C)CC2)c1C(=O)O,> 10 µM,> 10 µM,
COc1ccc(-n2c(SCc3nc4ccccc4s3)nc3ccccc32)cc1,> 10 µM,> 10 µM,
O/N=C1\CC(c2ccccc2)Sc2ccccc21 (stereo not drawn),> 12.9 µM,,"IC50 (PBLUC_HILL_SLOPE 0.783, PBLUC_R_SQUARED 0.658, read-out: LUCIFERASE INFECTION ASSAY - IC50): 3.88 µM"
CC(C)(C)c1ccc(NC(=O)CSc2ccc(S(=O)(=O)N3CCN(Cc4ccccc4)CC3)cn2)cc1,9.27 µM,4.44 µM,
NC(=O)c1cc(S(=O)(=O)N2CCCC2)ccc1OCc1nc2ccccc2s1,> 10 µM,,"IC50 (HEPG2TOX_HILL_SLOPE 0.311, HEPG2TOX_R_SQUARED 0.0458, PBLUC_HILL_SLOPE 3.01, PBLUC_R_SQUARED 0.0562, read-out: LUCIFERASE INFECTION ASSAY - IC50): 7.99 µM"
Cc1cc(C)c(S(=O)(=O)N2CCC(C(=O)Nc3nnc(C)o3)CC2)c(C)c1,> 10 µM,> 10 µM,
COc1cc2c(cc1OCC(=O)Nc1ccccc1Cl)C=CC(C)(C)O2,> 8.83 µM,,"IC50 (PBLUC_HILL_SLOPE 1.25, PBLUC_R_SQUARED 0.511, read-out: LUCIFERASE INFECTION ASSAY - IC50): 4.17 µM"
COc1cc2c(C#N)c(N3CCN(c4ccccc4OC)CC3)nc(N)c2c(N)n1,4.7 µM,,"IC50 (HEPG2TOX_HILL_SLOPE 3.01, HEPG2TOX_R_SQUARED 0.942, PBLUC_HILL_SLOPE 1.46, PBLUC_R_SQUARED 0.909, read-out: LUCIFERASE INFECTION ASSAY - IC50): 1.04 µM"
O=C(Nc1ccc(F)c(Cl)c1)N1CCc2nc(Nc3cc(Cl)cc(Cl)c3)ncc2C1,> 7.07 µM,> 7.07 µM,
Clc1ccc(C2=NC(c3ccc(Cl)c(Cl)c3)N=C(c3ccc(Cl)cc3)S2)cc1,> 7.08 µM,,"IC50 (PBLUC_HILL_SLOPE 0.411, PBLUC_R_SQUARED 0.521, read-out: LUCIFERASE INFECTION ASSAY - IC50): > 7.08 µM"
CSc1nnc(-c2csc(S(=O)(=O)Oc3cc(Cl)cc(Cl)c3)c2)n1C,> 7.56 µM,> 7.56 µM,
c1csc(-c2nnc(Sc3ncnc4sccc34)[nH]2)c1,> 10 µM,> 10 µM,
COc1ccc(CCN2CSC(=S)N(CCc3ccc(OC)c(OC)c3)C2)cc1OC,> 7.13 µM,> 7.13 µM,
COc1cccc(-c2cn3c(-c4ccccc4Cl)cnc3cn2)c1F,6.25 µM,,"IC50 (PBLUC_HILL_SLOPE 4, PBLUC_R_SQUARED 0.571, read-out: LUCIFERASE INFECTION ASSAY - IC50): 3.61 µM"
CC(C)(C)c1cc(C(=O)OCC(=O)NC(c2ccccc2)c2ccccc2)cc(C(C)(C)C)c1,> 10 µM,,"IC50 (FFLUC_HILL_SLOPE 15.9, FFLUC_R_SQUARED 0.274, HEPG2TOX_HILL_SLOPE 1.64, HEPG2TOX_R_SQUARED 0.592, PBLUC_HILL_SLOPE 2.07, PBLUC_R_SQUARED 0.325, read-out: LUCIFERASE INFECTION ASSAY - IC50): 7.82 µM"
COc1ccc(-c2nc3cnc(Nc4cccc(OC(F)(F)F)c4)cc3n2C)cc1OC,> 10 µM,,"IC50 (PBLUC_HILL_SLOPE 2.08, PBLUC_R_SQUARED 0.244, read-out: LUCIFERASE INFECTION ASSAY - IC50): > 10 µM"
CCCc1cc(NCc2cccnc2)n2ncc(-c3ccccc3)c2n1,> 9.61 µM,,"IC50 (PBLUC_HILL_SLOPE 2.86, PBLUC_R_SQUARED 0.143, read-out: LUCIFERASE INFECTION ASSAY - IC50): 6.97 µM"
CC(C)c1nc2ccccc2n1Cc1cccc2ccccc12,4.17 µM,,"IC50 (HEPG2TOX_HILL_SLOPE 2.18, HEPG2TOX_R_SQUARED 0.953, PBLUC_HILL_SLOPE 14.4, PBLUC_R_SQUARED 0.432, read-out: LUCIFERASE INFECTION ASSAY - IC50): 3.58 µM"
